{"source": "ChEMBL document CHEMBL4616584", "about": "“Designing around Structural Alerts in Drug Discovery” (J Med Chem, 2020)", "key": {"[1]": {"test": "Half life of the compound at pH 7.4", "format": "physicochemical"}, "[2]": {"test": "Half life of the compound in buffer", "format": "physicochemical"}, "in vitro": {"test": "in vitro", "settings": "human, platelets"}, "[3]": {"test": "Half life of the compound", "format": "physicochemical"}, "[4]": {"test": "Covalent protein binding in human liver microsomes assessed per mg protein at 10 uM preincubated for 5 mins followed by UDPGA addition and measured after 60 mins by liquid scintillation counting method", "format": "ADME, Microsome", "settings": "1 h"}, "[5]": {"test": "Half life in potassium phosphate buffer by liquid chromatography-tandem mass spectrometry", "format": "physicochemical"}, "[6]": {"test": "Covalent protein binding in human liver microsomes assessed per mg protein at 50 uM after 60 mins in presence of NADPH by LC-MS/MS method", "format": "ADME, Microsome", "settings": "1 h"}}}
{"molecule": "NC(=O)OCC(C=O)c1ccccc1", "note": "(configuration not stated)", "values": [{"measurement": "half-life", "setting": "[1]", "value": "< 0.5", "unit": "min"}]}
{"molecule": "Cc1cc(OCCCS(C)(=O)=O)cc(C)c1-c1cccc(COc2ccc3c(c2)OC[C@H]3CC(=O)O[C@H]2O[C@@H](C(=O)O)[C@H](O)[C@H](O)[C@@H]2O)c1", "values": [{"measurement": "half-life", "setting": "[2]", "value": 30, "unit": "min"}]}
{"molecule": "COC(=O)[C@H](c1ccccc1Cl)N1CCc2sccc2C1", "note": "[CLOPIDOGREL]", "values": [{"measurement": "fraction unbound", "setting": "in vitro", "value": 0.98}]}
{"molecule": "CC(C)Cc1ccc(CC(=O)O)cc1", "note": "[IBUFENAC]", "values": [{"measurement": "half-life", "setting": "[3]", "value": 66, "unit": "min"}, {"measurement": "PB", "setting": "[4]", "value": "1000 to 8600", "unit": "pmol"}]}
{"molecule": "CC(C)Cc1ccc(C(C)C(=O)O)cc1", "note": "(configuration not stated) [IBUPROFEN]", "values": [{"measurement": "PB", "setting": "[4]", "value": "1000 to 8600", "unit": "pmol"}]}
{"molecule": "Cc1ccc(Cl)c(Nc2ccccc2C(=O)O)c1Cl", "note": "[MECLOFENAMIC ACID]", "values": [{"measurement": "half-life", "setting": "[5]", "value": 1690, "unit": "min"}]}
{"molecule": "Cc1cccc(Nc2ccccc2C(=O)O)c1C", "note": "[MEFENAMIC ACID]", "values": [{"measurement": "half-life", "setting": "[5]", "value": 990, "unit": "min"}]}
{"molecule": "Cc1cnc(NC(=O)C2=C(O)c3ccccc3S(=O)(=O)N2C)s1", "note": "[MELOXICAM]", "values": [{"measurement": "PB", "setting": "[6]", "value": 3.6, "unit": "pmol"}]}
{"molecule": "CCCN(CCC)S(=O)(=O)c1ccc(C(=O)O)cc1", "note": "[PROBENECID]", "values": [{"measurement": "half-life", "setting": "[5]", "value": 16.2, "unit": "min"}]}
{"molecule": "CN1C(C(=O)Nc2nccs2)=C(O)c2ccccc2S1(=O)=O", "note": "[SUDOXICAM]", "values": [{"measurement": "PB", "setting": "[6]", "value": 1.4, "unit": "pmol"}]}
{"molecule": "Cc1cc(CC(=O)O)n(C)c1C(=O)c1ccc(Cl)cc1", "note": "[ZOMEPIRAC]", "values": [{"measurement": "half-life", "setting": "[2]", "value": 30, "unit": "min"}]}
